Patent EP4737449A1 (Changchun Genescience Pharmaceutical Co., Ltd., priority 2023, dated 2025)

Assays:
[1] = target: T1, p53-Y220C mutant protein (Homo sapiens, UniProt P04637, Y220C); experiment: In vitro DNA binding activity assay (TR-FRET); format: biochemical; details: concentration required to increase the binding activity of protein to DNA by 50%
T1 construct: The recombinant Y220C p53 DBD protein with his-tag
Outline: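 SC150, the compound concentration increasing p53-Y220C DNA binding by 50% relative to vehicle, came from background-corrected 665/615 nm TR-FRET ratios. His-tagged DBD and compound were preincubated 60 min at RT before biotin-DNA plus Eu-anti-His/streptavidin-d2 detection overnight in the dark.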

[2] = test system: NUGC-3 cells; experiment: NUGC-3 cell proliferation assay (CTG, 7 days); format: cell-based, human; details: Homo sapiens, NUGC-3, 168 h, NUGC-3 cell proliferation, 7 days, CTG; read-out: IC50
Description: The cells were cultured in strict accordance with ATCC requirements.
Cell culture medium: 1640 culture medium, 10% serum, 1% penicillin + streptomycin.
Culture conditions: 37°C, 95% air, 5% carbon dioxide.
Compounds (20 mM) were subjected to gradient dilution in DMSO: 10 gradients, 3-fold dilution, duplicate wells.
Positive and negative controls (100% dimethyl sulfoxide) were prepared.
The compounds that were gradient diluted with DMSO and positive and negative controls (1st and 2nd step), each 75 nL, were transferred to 384-well cell culture plates by Echo550.
The cells were washed twice with PBS, digested with trypsin, and centrifuged for cell counting.
The experiment can only be carried out when the cell viability is above 90%.
The cells were plated into 384-well cell culture plates, with 200 (NUGC-3) cells and 30 µL of culture medium per well.
The 384-well microplate was placed in a cell culture incubator for 7 days.
30 µL of CTG detection reagent was added to the 384-well microplate.
The 384-well microplate was incubated for 30 min at 37°C, 5% carbon dioxide in the dark.
The reading was performed by a multi-functional microplate reader Envision.
% Inhibition is calculated as follows: % Inhibition = 100−(Signalcmpd−SignalAve_BL)/(SignalAve_VC−SignalAve_BL)*100 [formula] • Signalcmpd: Average signal of the compound in the cell plate • Signalave_vc: Average signal of the negative control in the cell plate • Signalave_BL: Average signal of the blank wells in the cell plate
IC50 was calculated by fitting % inhibition and compound concentration logarithmically to a nonlinear regression (dose response - variable slope) using Graphpad 8.0. Table 2 IC50 of selected compounds in NUGC-3 cell proliferation assay

Row | SC150 [1] [nM] | SMILES | IC50 [2] [µM]
1 | 97 | CN1CC[C@@H](Nc2cccc3c(CC(F)(F)F)c(C#CCNC(=O)c4ccc(N5CCCCC5)nc4)nn23)[C@@H](F)C1 [Compound 316, N-[3-(7-{[(3S,4R)-3-fluoro-1-methylpiperidin-4-yl]amino}-3-(2,2,2-trifluoroethyl)pyrazolo[1,5-a]pyridin-2-yl)prop-2-yn-1-yl]-6-(piperidin-1-yl)nicotinamide] | 2.16
2 | 44 | Cc1cc(C(=O)NCC#Cc2nn3c(N[C@@H]4CCN(C)C[C@@H]4F)cccc3c2CC(F)(F)F)[nH]c1C [Compound 317, N-[3-(7-{[(3S,4R)-3-fluoro-1-methylpiperidin-4-yl]amino}-3-(2,2,2-trifluoroethyl)pyrazolo[1,5-a]pyridin-2-yl)prop-2-yn-1-yl]-4,5-dimethyl-1H-pyrrole-2-carboxamide] | 1.29
3 | 59 | Cc1nc(C(=O)NCC#Cc2nn3c(N[C@@H]4CCN(C)C[C@@H]4F)cccc3c2CC(F)(F)F)cn1C [Compound 318, N-[3-(7-{[(3S,4R)-3-fluoro-1-methylpiperidin-4-yl]amino}-3-(2,2,2-trifluoroethyl)pyrazolo[1,5-a]pyridin-2-yl)prop-2-yn-1-yl]-1,2-dimethyl-1H-imidazole-4-carboxamide] | 1.7
4 | 41 | CN1CC[C@@H](Nc2cccc3c(CC(F)(F)F)c(C#CCNC(=O)c4cn(C)cn4)nn23)[C@@H](F)C1 [Compound 319, N-[3-(7-{[(3S,4R)-3-fluoro-1-methylpiperidin-4-yl]amino}-3-(2,2,2-trifluoroethyl)pyrazolo[1,5-a]pyridin-2-yl)prop-2-yn-1-yl]-1-methyl-1H-imidazole-4-carboxamide] | 1.37
5 | 28 | CC(C)n1cnc(C(=O)NCC#Cc2nn3c(N[C@@H]4CCN(C)C[C@@H]4F)cccc3c2CC(F)(F)F)c1 [Compound 320, N-[3-(7-{[(3S,4R)-3-fluoro-1-methylpiperidin-4-yl]amino}-3-(2,2,2-trifluoroethyl)pyrazolo[1,5-a]pyridin-2-yl)prop-2-yn-1-yl]-1-isopropyl-1H-imidazole-4-carboxamide] | 1.56
6 | 28 | CN1CC[C@@H](Nc2cccc3c(CC(F)(F)F)c(C#CCNC(=O)c4cc(Cl)n(C)c4)nn23)[C@@H](F)C1 [Compound 326, 5-chloro-N-(3-(7-{[(3S,4R)-3-fluoro-1-methylpiperidin-4-yl]amino}-3-(2,2,2-trifluoroethyl)pyrazolo[1,5-a]pyridin-2-yl)prop-2-yn-1-yl)-1-methyl-1H-pyrrole-3-carboxamide] | 1.18
7 | 30 | CN1CC[C@@H](Nc2cccc3c(CC(F)(F)F)c(C#CCNC(=O)c4ccc(N(C)C)nc4)nn23)[C@@H](F)C1 [Compound 328, 6-dimethylamino-N-[3-(7-{[(3S,4R)-3-fluoro-1-methylpiperidin-4-yl]amino}-3-(2,2,2-trifluoroethyl)pyrazolo[1,5-a]pyridin-2-yl)prop-2-yn-1-yl]pyridine-3-carboxamide] | 1.21
8 | 36 | CCc1ccc(C(=O)NCC#Cc2nn3c(N[C@@H]4CCN(C)C[C@@H]4F)cccc3c2CC(F)(F)F)cn1 [Compound 331, 6-ethyl-N-[3-(7-{[(3S,4R)-3-fluoro-1-methylpiperidin-4-yl]amino}-3-(2,2,2-trifluoroethyl)pyrazolo[1,5-a]pyridin-2-yl)prop-2-yn-1-yl]pyridine-3-carboxamide] | 1.72
9 | 29 | Cc1ccc(C(=O)NCC#Cc2nn3c(N[C@@H]4CCN(C)C[C@@H]4F)cccc3c2CC(F)(F)F)cn1 [Compound 332, N-[3-(7-{[(3S,4R)-3-fluoro-1-methylpiperidin-4-yl]amino}-3-(2,2,2-trifluoroethyl)pyrazolo[1,5-a]pyridin-2-yl)prop-2-yn-1-yl]-6-methylnicotinamide] | 1.71
